Assays:
Bacillus subtilis = assay: Antimicrobial activity against Bacillus subtilis (agar plate-cylinder); type: cell-based; settings: standard bleomycin A2 (copper-free) assumed 1,000 mcg potency/mg
Protocol: (§1) 2. ANT[…] MYC[…] ATCC 607 AND BACILLUS SUBTILIS
(§2) The antimicrobial activity was tested against the captioned test organisms by the method of agar plate-cylinder. The activity was recorded on the assumption that the activity of standard sample of bleomycin A2 (copper-free form) is 1,000 mcg poteney/mg.

[1] = tested on: Mycobacterium smegmatis ATCC 607; assay: Antimicrobial activity against Mycobacterium smegmatis ATCC 607 (agar plate-cylinder); type: cell-based; settings: standard bleomycin A2 (copper-free) assumed 1,000 mcg potency/mg
Protocol: as §1, §2

| Structure (SMILES) | Antimicrobial potency of Cu-free compound against Bacillus subtilis (Bacillus subtilis) [mcg potency/mg] | Antimicrobial potency of Cu-free compound against Mycobacterium smegmatis ATCC 607 [1] [mcg potency/mg] |
| --- | --- | --- |
| Cc1c(N)nc(C(CC(N)=O)NCC(N)C(=O)NCCCCCCCCCCCCN)nc1C(=O)NC(C(=O)NC(C)C(O)C(C)C(=O)NC(C(=O)NCCc1nc(-c2nc(C(=O)NCCCNC(C)c3ccccc3)cs2)cs1)C(C)O)C(OC1OC(CO)C(O)C(O)C1OC1OC(CO)C(O)C(OC(N)=O)C1O)c1cnc[nH]1 [Compound 29, 3-((S)-1'-phenylethylamino)propylamino-(amido)N--[do-decanyl]-BLM] | 5400 | 14200 |
| Cc1c(N)nc(C(CC(N)=O)NCC(N)C(=O)NCc2ccccc2)nc1C(=O)NC(C(=O)NC(C)C(O)C(C)C(=O)NC(C(=O)NCCc1nc(-c2nc(C(=O)NCCCNC(C)c3ccccc3)cs2)cs1)C(C)O)C(OC1OC(CO)C(O)C(O)C1OC1OC(CO)C(O)C(OC(N)=O)C1O)c1cnc[nH]1 [Compound 23, 3-((S)-1'-phenylethyl)aminopropylamino-(amido)N--[benzyl]-BLM] | 1380 | 38348 |
| Cc1c(N)nc(C(CC(N)=O)NCC(N)C(=O)NC(c2ccccc2)c2ccccc2)nc1C(=O)NC(C(=O)NC(C)C(O)C(C)C(=O)NC(C(=O)NCCc1nc(-c2nc(C(=O)NCCCNC(C)c3ccccc3)cs2)cs1)C(C)O)C(OC1OC(CO)C(O)C(O)C1OC1OC(CO)C(O)C(OC(N)=O)C1O)c1cnc[nH]1 [Compound 31, 3-((S)-1'-phenylethylamino)propylamino-(amido)N--[diphenylmethyl]-BLM] | 430 | 54645 |
| CCCCNCCCN(C)CCCNC(=O)C(N)CNC(CC(N)=O)c1nc(N)c(C)c(C(=O)NC(C(=O)NC(C)C(O)C(C)C(=O)NC(C(=O)NCCc2nc(-c3nc(C(=O)NCCC[N+](C)(CCCN(Cc4ccccc4)Cc4ccccc4)Cc4ccccc4)cs3)cs2)C(C)O)C(OC2OC(CO)C(O)C(O)C2OC2OC(CO)C(O)C(OC(N)=O)C2O)c2cnc[nH]2)n1 (stereo not drawn) [Compound 50, 3-{N--methyl-N--benzyl-N--[3-(dibenzylamino)propyl]amino}-propylamino-(amido)N--[3-[N--methyl-N--(3-n-butylaminopropyl)]-aminopropyl]-BLM] | 376 | 1417 |
| CCCCCCCCNC(=O)C(N)CNC(CC(N)=O)c1nc(N)c(C)c(C(=O)NC(C(=O)NC(C)C(O)C(C)C(=O)NC(C(=O)NCCc2nc(-c3nc(C(=O)NCCCNC(C)c4ccccc4)cs3)cs2)C(C)O)C(OC2OC(CO)C(O)C(O)C2OC2OC(CO)C(O)C(OC(N)=O)C2O)c2cnc[nH]2)n1 [Compound 27, 3-((S)-1'-phenylethylamino)propylamino-(amido)N--[octyl]-BLM] | 886 | 45100 |
| Cc1c(N)nc(C(CC(N)=O)NCC(N)C(=O)NC(Cc2ccccc2)c2ccccc2)nc1C(=O)NC(C(=O)NC(C)C(O)C(C)C(=O)NC(C(=O)NCCc1nc(-c2nc(C(=O)NCCCNC(C)c3ccccc3)cs2)cs1)C(C)O)C(OC1OC(CO)C(O)C(O)C1OC1OC(CO)C(O)C(OC(N)=O)C1O)c1cnc[nH]1 [Compound 30, 3-((S)-1'-phenylethylamino)propylamino-(amido)N--[1',2'-diphenyl-ethyl]-BLM] | 190 | 33802 |
